In patent EP0306845A2, “Medicinal preparation containing certain derivatives of 6-mercaptopurine, use of these derivatives of 6-mercaptopurine, process for the preparation of the medicinal preparation and some derivatives of 6-mercaptopurine and process for their preparation” (HOECHST AKTIENGESELLSCHAFT, priority 1987, dated 1989):

Test system: Friend-Leukämie-Virus
Assay: In vivo test in mice infected with Friend leukaemia virus (retrovirus model; spleen weight)
Parameters: species or system Maus
Conditions: for Wirkung im Vergleich zu Suramin: summary in words of the two experiments of the table
From the text: Da für die HIV-Infektion des Menschen kein geeignetes Infektionsmodell bei Labortieren existiert, muß bei der Prüfung von Chemotherapeutika auf Infektionen mit anderen Retroviren zurückgegriffen werden. Sowie die Hemmung der Virusreplikation in vivo aufgrund einer spezifischen Blockierung der RT (= Reverse Transkriptase)-Aktivität untersucht wird, erscheint die Wahl eines solchen Ersatzmodelles gerechtfertigt. Im vorliegenden Fall wurde die Infektion der Maus mit dem Friend-Leukämie-Virus gewählt.
Dazu wurden normale Labormäuse (NMRI = Naval Medical Research Institute) durch intravenöse Injektion mit Friend-Virus enthaltendem Mäuseserum infiziert. Bei den unbehandelten Kontrolltieren entwickelte sich als Symptom der Infektion innerhalb von zwei Wochen eine deutliche Vergrößerung von Milz und Leber. Die Behandlung erfolgte über 10 Tage, beginnend 48 Stunden nach der Infektion. Am 14. Versuchstag wurden die tiere durch Luxation der Halswirbel getötet und geöffnet. Die Milz wurde entnommen und gewogen. Als Meßparameter der therapeutischen Wirksamkeit wurde das Milzgewicht der behandelten Tiere mit dem der unbehandelten Infektionskontrolle in Relation gesetzt.
Während bei uninfizierten ausgewachsenen Labormäusen (20 - 24 g Körpergewicht) die Milz weniger als 1 % des Körpergewichtes wog, erreichte bei infizierten Tieren die Milz am Ende des Versuchs bis zu etwa 10 % des Körpergewichtes. […] Suramin ist die Verbindung der Formel: [drawing 14]

| Compound | Wirkung im Vergleich zu Suramin | other results |
| --- | --- | --- |
| 6-Mercapto-9-[1,3-bis-(isopropoxy)-propyl-2-oxymethyl]-purin [Beispiel 2] | gegenüber dem Suramin Vorteile besitzen | – |
| 6-Mercapto-9-[(1-hydroxy-3-isopropoxy-2-propoxy)methyl]-purin [Beispiel 3] | mit Suramin vergleichbar | – |
| OC[C@H]1O[C@@H](n2cnc3c(S)ncnc32)[C@H](O)[C@@H]1O [(1), 6-Mercapto-purin-9-D-ribosid] | gegenüber dem Suramin Vorteile besitzen | – |
| Nc1nc(S)c2ncn([C@@H]3O[C@H](CO)[C@@H](O)[C@H]3O)c2n1 [(2), 2-Amino-6-mercaptopurin-9-D-ribosid] | – | Relat Milzgewicht in % vom Körpergewicht (Versuch 1 (Virus-Verdünnung 1:5000), NMRI mice, 10 x 1,0 mg/Maus i.p., spleen weighed on day 14): 0,5 % vom Körpergewicht |
| Cc1ccc(C(=O)Nc2ccc(S(=O)(=O)O)c3cc(S(=O)(=O)O)cc(S(=O)(=O)O)c23)cc1NC(=O)c1cccc(NC(=O)Nc2cccc(C(=O)Nc3cc(C(=O)Nc4ccc(S(=O)(=O)O)c5cc(S(=O)(=O)O)cc(S(=O)(=O)O)c45)ccc3C)c2)c1 [Suramin, reference compound] | – | Milzwachstum (infected mice, treatment with the comparison preparation, mostly statistically significant (P 0,05)): Verringerung des Milzwachstums |
